From patent US20250230140A1 (Viva Star Biosciences (Suzhou) Co., Ltd., priority 2021, published 2025)

Target: T1, LPA1 (Homo sapiens, UniProt Q92633)
T1 construct: ProLink (β-galactosidase enzyme-donor fragment); host or cells: CHO-K1 (PathHunter EDG2 β-Arrestin cell line)
Experiment: LPA1 calcium flux assay (LPA1 functional antagonist assay)
Assay type: cell-based
Conditions: PathHunter CHO-K1 EDG2 β-Arrestin cells, calcium indicator dye, stimulated with EC80 concentration of LPA, FLIPR
Experimental: The effectiveness of compounds of the present invention as LPA1 inhibitors can be determined in an LPA1 functional antagonist assay as follows.
PathHunter® CHO-K1 EDG2 β-Arrestin Cell Line (Eurofins DiscoverX Corporation, Cat #93-0644C2) were plated overnight (11,500 cells/well) in poly-D-lysine coated 384-well microplates (Corning, Cat #356697) in AssayComplete™ Cell Plating 35 Reagent (Eurofins DiscoverX Corporation, Cat #93-0563R35). Following overnight culture, cells were loaded with calcium indicator dye from the HitHunter Calcium No WashPLUS Assay kit (Eurofins DiscoverX Corporation, Cat #93-0091) for 45 minutes at 37° C. Test compounds solubilized in DMSO (Sigma, Cat #276855) on 384-well polypropylene microplates (Greiner bio-one, Cat #781280) were then diluted to intermediate concentration with assay buffer [1×HBSS calcium/magnesium (Corning, Cat #21-023-CM) and 20 mM HEPES (Corning, Cat #25-060-Cl)] before addition to cells by Agilent Velocity 11 with a final concentration of 0.4% DMSO. After compound addition, assay plates were equilibrated to room temperature for 30 minutes. Cells were then stimulated by addition of EC80 concentration of LPA (Cat #, 10010093) in assay buffer containing [1×HBSS calcium/magnesium (Corning, Cat #21-023-CM), 20 mM HEPES (Corning, Cat #25-060-Cl), and 0.1% BSA (Sigma, Cat #A8806)] using Molecular Devices FLIPR Tetra PLUS®. IC50 values were determined by Chemical and Biological Information System from ChemInnovation Software, Inc.
The compounds of this invention were tested for their activity to inhibit LPA1 as determined in an LPA1 functional antagonist assay as described herein.

T1 sequence (Q92633 whole entry, the tested form may be a part): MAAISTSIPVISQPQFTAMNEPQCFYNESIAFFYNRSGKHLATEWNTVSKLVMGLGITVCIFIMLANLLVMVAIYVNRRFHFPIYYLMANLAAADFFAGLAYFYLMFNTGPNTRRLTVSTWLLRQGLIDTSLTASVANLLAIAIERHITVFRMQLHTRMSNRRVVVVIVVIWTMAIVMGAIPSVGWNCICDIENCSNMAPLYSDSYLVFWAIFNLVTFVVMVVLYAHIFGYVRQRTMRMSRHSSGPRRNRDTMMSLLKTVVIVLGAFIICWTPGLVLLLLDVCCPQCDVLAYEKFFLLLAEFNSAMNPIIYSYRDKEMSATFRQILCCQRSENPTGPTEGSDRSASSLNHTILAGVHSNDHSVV

An IC50 of less than 0.1 µM was found for `CCc1nc(-c2nnn(C)c2COc2nccc(C3CCC3)n2)ccc1[C@H]1CCC[C@@H](CC(=O)O)O1` (relative stereo) [Example 21, 2-(rel-(2S,6R)-6-(6-(5-(((4-cyclobutylpyrimidin-2-yl)oxy)methyl)-1-methyl-1H-1,2,3-triazol-4-yl)-2-ethylpyridin-3-yl)tetrahydro-2H-pyran-2-yl)acetic acid] in this work.

An IC50 of 0.5 to 5 µM was found for `CCCc1ccc(=O)n(Cc2c(-c3ccc(N4CC[C@@H](C(CC)C(=O)O)C4)c(CC)n3)nnn2C)c1` (single isomer, unassigned) [Example 17, (S) or (R)-2-((S)-1-(2-ethyl-6-(1-methyl-5-((2-oxo-5-propylpyridin-1(2H)-yl)methyl)-1H-1,2,3-triazol-4-yl)pyridin-3-yl)pyrrolidin-3-yl)butanoic acid] in this work.

An IC50 of 5 to 10000 µM was found for `CCCc1ccc(=O)n(Cc2c(-c3ccc(N4CC[C@@H](C(CC)C(=O)O)C4)c(CC)n3)nnn2C)c1` (single isomer, unassigned) [Example 18, (R) or (S)-2-((S)-1-(2-ethyl-6-(1-methyl-5-((2-oxo-5-propylpyridin-1(2H)-yl)methyl)-1H-1,2,3-triazol-4-yl)pyridin-3-yl)pyrrolidin-3-yl)butanoic acid] in this work.

An IC50 of 5 to 10000 µM was found for `CCCN(C)C(=O)OCc1c(-c2ccc(N3CC[C@@H](C(CC)C(=O)O)C3)c(CC)n2)nnn1C` (single isomer, unassigned) [Example 19, (S) or (R)-2-((S)-1-(2-ethyl-6-(1-methyl-5-(((methyl(propyl)carbamoyl)oxy)methyl)-1H-1,2,3-triazol-4-yl)pyridin-3-yl)pyrrolidin-3-yl)butanoic acid] in this work.

An IC50 of 0.5 to 5 µM was found for `CCCN(C)C(=O)OCc1c(-c2ccc(N3CC[C@@H](C(CC)C(=O)O)C3)c(CC)n2)nnn1C` (single isomer, unassigned) [Example 20, (R) or (S)-2-((S)-1-(2-ethyl-6-(1-methyl-5-(((methyl(propyl)carbamoyl)oxy)methyl)-1H-1,2,3-triazol-4-yl)pyridin-3-yl)pyrrolidin-3-yl)butanoic acid] in this work.

An IC50 of less than 0.1 µM was found for `CCc1nc(-c2nnn(C)c2COc2nccc(C3CCC3)n2)ccc1[C@@H]1CCC[C@@H](CC(=O)O)O1` (single isomer, unassigned) [Example 22, 2-((2S,6S) or (2R,6R)-6-(6-(5-(((4-cyclobutylpyrimidin-2-yl)oxy)methyl)-1-methyl-1H-1,2,3-triazol-4-yl)-2-ethylpyridin-3-yl)tetrahydro-2H-pyran-2-yl)acetic acid] in this work.

An IC50 of 0.1 to 0.5 µM was found for `CCc1nc(-c2nnn(C)c2COc2nccc(C3CCC3)n2)ccc1[C@H]1CCC[C@H](CC(=O)O)O1` (single isomer, unassigned) [Example 23, 2-((2R,6R) or (2S,6S)-6-(6-(5-(((4-cyclobutylpyrimidin-2-yl)oxy)methyl)-1-methyl-1H-1,2,3-triazol-4-yl)-2-ethylpyridin-3-yl)tetrahydro-2H-pyran-2-yl)acetic acid] in this work.

An IC50 of 0.5 to 5 µM was found for `CCCc1ccc(=O)n(Cc2c(-c3ccc([C@@H]4CCC[C@@H](CC(=O)O)O4)c(CC)n3)nnn2C)c1` (single isomer, unassigned) [Example 24, 2-((2S,6S) or (2R,6R)-6-(2-ethyl-6-(1-methyl-5-((2-oxo-5-propylpyridin-1(2H)-yl)methyl)-1H-1,2,3-triazol-4-yl)pyridin-3-yl)tetrahydro-2H-pyran-2-yl)acetic acid] in this work.

An IC50 of 0.5 to 5 µM was found for `CCCN(C)C(=O)OCc1c(-c2ccc([C@@H]3CCC[C@@H](CC(=O)O)O3)c(CC)n2)nnn1C` (single isomer, unassigned) [Example 25, 2-((2S,6S) or (2R,6R)-6-(2-ethyl-6-(1-methyl-5-(((methyl(propyl)carbamoyl)oxy)methyl)-1H-1,2,3-triazol-4-yl)pyridin-3-yl)tetrahydro-2H-pyran-2-yl)acetic acid] in this work.

An IC50 of less than 0.1 µM was found for `CCc1nc(-c2nnn(C)c2COc2nccc(C3CCC3)n2)ccc1C1CCOC(CC(=O)O)C1` (single isomer, unassigned) [Example 34, 2-(4-(6-(5-(((4-cyclobutylpyrimidin-2-yl)oxy)methyl)-1-methyl-1H-1,2,3-triazol-4-yl)-2-ethylpyridin-3-yl)tetrahydro-2H-223,423-pyran-2-yl)acetic acid] in this work.

An IC50 of less than 0.1 µM was found for `CCc1nc(-c2nnn(C)c2COc2nccc(C3CCC3)n2)ccc1C1CCOC(CC(=O)O)C1` (single isomer, unassigned) [Example 35, 2-(4-(6-(5-(((4-cyclobutylpyrimidin-2-yl)oxy)methyl)-1-methyl-1H-1,2,3-triazol-4-yl)-2-ethylpyridin-3-yl)tetrahydro-2H-223,423-pyran-2-yl)acetic acid] in this work.

An IC50 of less than 0.1 µM was found for `CCc1nc(-c2nnn(C)c2COc2nccc(C3CCC3)n2)ccc1C1CCOC(CC(=O)O)C1` (single isomer, unassigned) [Example 36, 2-(4-(6-(5-(((4-cyclobutylpyrimidin-2-yl)oxy)methyl)-1-methyl-1H-1,2,3-triazol-4-yl)-2-ethylpyridin-3-yl)tetrahydro-2H-223,423-pyran-2-yl)acetic acid] in this work.

An IC50 of less than 0.1 µM was found for `CCc1nc(-c2nnn(C)c2COc2nccc(C3CCC3)n2)ccc1C1CCOC(CC(=O)O)C1` (single isomer, unassigned) [Example 37, 2-(4-(6-(5-(((4-cyclobutylpyrimidin-2-yl)oxy)methyl)-1-methyl-1H-1,2,3-triazol-4-yl)-2-ethylpyridin-3-yl)tetrahydro-2H-2λ^3,4λ^3-pyran-2-yl)acetic acid] in this work.

An IC50 of 5 to 10000 µM was found for `CCCc1ccc(=O)n(Cc2c(-c3ccc(C4CN(CC(=O)O)CC(F)(F)C4)c(C)n3)nnn2C)c1` (single isomer, unassigned) [Example 40, (R) or (S)-2-(3,3-difluoro-5-(2-methyl-6-(1-methyl-5-((2-oxo-5-propylpyridin-1(2H)-yl)methyl)-1H-1,2,3-triazol-4-yl)pyridin-3-yl)piperidin-1-yl)acetic acid] in this work.

An IC50 of 0.1 to 0.5 µM was found for `CCCc1ccc(=O)n(Cc2c(-c3ccc(C4CN(CC(=O)O)CC(F)(F)C4)c(C)n3)nnn2C)c1` (single isomer, unassigned) [Example 41, (S) or (R)-2-(3,3-difluoro-5-(2-methyl-6-(1-methyl-5-((2-oxo-5-propylpyridin-1(2H)-yl)methyl)-1H-1,2,3-triazol-4-yl)pyridin-3-yl)piperidin-1-yl)acetic acid] in this work.

An IC50 of less than 0.1 µM was found for `CCc1nc(-c2nnn(C)c2COc2nccc(C3CCC3)n2)ccc1N1CC[C@@H](CC(=O)O)C1` [Example 1, 2-[(3S)-1-[6-(5-{[(4-cyclobutylpyrimidin-2-yl)oxy]methyl}-1-methyl-1H-1,2,3-triazol-4-yl)-2-ethylpyridin-3-yl]pyrrolidin-3-yl]acetic acid] in this work.

An IC50 of 0.5 to 5 µM was found for `CCCc1ccc(=O)n(Cc2c(-c3ccc(N4CCC(CC(=O)O)C4)c(C)n3)nnn2C)c1` (stereo not drawn) [Example 2, 2-(1-(2-methyl-6-(1-methyl-5-((2-oxo-5-propylpyridin-1(2H)-yl)methyl)-1H-1,2,3-triazol-4-yl)pyridin-3-yl)pyrrolidin-3-yl)acetic acid] in this work.

An IC50 of less than 0.1 µM was found for `Cc1nc(-c2nnn(C)c2COc2nccc(C3CCC3)n2)ccc1N1CCC(CC(=O)O)C1` (stereo not drawn) [Example 3, 2-(1-(6-(5-(((4-cyclobutylpyrimidin-2-yl)oxy)methyl)-1-methyl-1H-1,2,3-triazol-4-yl)-2-methylpyridin-3-yl)pyrrolidin-3-yl)acetic acid] in this work.

An IC50 of 0.1 to 0.5 µM was found for `CCc1nc(-c2nnn(C)c2COc2nccc(C3CCC3)n2)ccc1N1CC[C@H](CC(=O)O)C1` [Example 4, (R)-2-(1-(6-(5-(((4-cyclobutylpyrimidin-2-yl)oxy)methyl)-1-methyl-1H-1,2,3-triazol-4-yl)-2-ethylpyridin-3-yl)pyrrolidin-3-yl)acetic acid] in this work.

An IC50 of 0.1 to 0.5 µM was found for `Cc1nc(-c2nnn(C)c2COc2nccc(C3CCC3)n2)ccc1N1CC[C@H](CC(=O)O)C1` [Example 5, (R)-2-(1-(6-(5-(((4-cyclobutylpyrimidin-2-yl)oxy)methyl)-1-methyl-1H-1,2,3-triazol-4-yl)-2-methylpyridin-3-yl)pyrrolidin-3-yl)acetic acid] in this work.

An IC50 of less than 0.1 µM was found for `Cc1nc(-c2nnn(C)c2COc2nccc(C3CCC3)n2)ccc1N1CC[C@@H](CC(=O)O)C1` [Example 6, (S)-2-(1-(6-(5-(((4-cyclobutylpyrimidin-2-yl)oxy)methyl)-1-methyl-1H-1,2,3-triazol-4-yl)-2-methylpyridin-3-yl)pyrrolidin-3-yl)acetic acid] in this work.

An IC50 of 0.1 to 0.5 µM was found for `Cc1nc(-c2nnn(C)c2COc2cc(-n3cccn3)ncn2)ccc1N1CC[C@H](CC(=O)O)C1` [Example 7, (R)-2-(1-(6-(5-(((6-(1H-pyrazol-1-yl)pyrimidin-4-yl)oxy)methyl)-1-methyl-1H-1,2,3-triazol-4-yl)-2-methylpyridin-3-yl)pyrrolidin-3-yl)acetic acid] in this work.

An IC50 of less than 0.1 µM was found for `CCc1nc(-c2nnn(C)c2COc2nccc(C3CCC3)n2)ccc1N1CC[C@@H]([C@@H](C)C(=O)O)C1` [Example 8] in this work.

An IC50 of less than 0.1 µM was found for `CCc1nc(-c2nnn(C)c2COc2nccc(C3CCC3)n2)ccc1N1CC[C@H]([C@@H](C)C(=O)O)C1` [Example 9] in this work.
